Laboratory results reported in patent US9085576B2 (AMGEN INC., priority 2013, dated 2015).

Experiments:
[1] = biological target: Beta Secretase enzyme (BACE) (Homo sapiens (Human), UniProt P56817); assay: In vitro enzymatic BACE FRET assay; format: biochemical; details: read-out: BACE1 Enzyme assay IC50
Cathepsin D (Cat D) = Cathepsin D (Cat D) (Homo sapiens (Human), UniProt P07339); assay: In vitro enzymatic Cathepsin D (Cat D) FRET assay; format: biochemical; details: read-out: CatD IC50
BACE = BACE (Homo sapiens (Human), UniProt P56817); assay: In vitro BACE cell-based assay (Aβ40 in conditioned medium, sandwich ELISA)
Chain of BACE (P56817 46-501, species assumed): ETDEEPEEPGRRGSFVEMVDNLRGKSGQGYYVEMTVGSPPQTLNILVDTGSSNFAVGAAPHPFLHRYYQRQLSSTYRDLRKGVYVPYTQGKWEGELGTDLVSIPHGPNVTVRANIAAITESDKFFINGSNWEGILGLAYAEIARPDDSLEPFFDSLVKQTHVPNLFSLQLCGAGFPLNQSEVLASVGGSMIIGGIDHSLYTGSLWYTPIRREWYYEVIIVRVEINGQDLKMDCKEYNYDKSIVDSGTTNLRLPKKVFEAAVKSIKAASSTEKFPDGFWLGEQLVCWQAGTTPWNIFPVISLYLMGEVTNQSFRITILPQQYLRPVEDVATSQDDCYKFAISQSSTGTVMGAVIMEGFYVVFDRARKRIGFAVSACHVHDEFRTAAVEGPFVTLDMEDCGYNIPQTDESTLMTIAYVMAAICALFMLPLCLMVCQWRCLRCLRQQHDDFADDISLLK

Chain of Beta Secretase enzyme (BACE) (P56817 46-501): as the sequence (P56817 46-501, species assumed) above
Chain of Cathepsin D (Cat D) (P07339 65-412, species assumed): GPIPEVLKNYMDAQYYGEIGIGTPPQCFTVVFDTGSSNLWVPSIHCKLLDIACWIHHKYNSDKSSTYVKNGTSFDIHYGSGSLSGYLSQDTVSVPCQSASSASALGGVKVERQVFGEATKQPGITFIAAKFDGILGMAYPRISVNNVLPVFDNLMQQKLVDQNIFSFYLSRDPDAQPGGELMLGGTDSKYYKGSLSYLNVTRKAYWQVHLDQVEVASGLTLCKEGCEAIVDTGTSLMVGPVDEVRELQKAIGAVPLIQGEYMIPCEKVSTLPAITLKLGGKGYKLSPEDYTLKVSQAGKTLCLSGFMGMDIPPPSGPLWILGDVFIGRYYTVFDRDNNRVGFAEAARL

| Structure (SMILES) | IC50 [1] | IC50 (Cathepsin D (Cat D)) | IC50 (BACE) |
| --- | --- | --- | --- |
| NC1=NC(CF)(c2cc(NC(=O)c3nn(C(F)F)cc3Cl)cc(F)c2F)[C@@H]2C[C@@H]2O1 (stereo in doubt) [Example 47, N-(3-((1S,5S,6S)-3-amino-5-(fluoromethyl)-2-oxa-4-azabicyclo[4.1.0]hept-3-en-5-yl)-4,5-difluorophenyl)-4-chloro-1-(difluoromethyl)-1H-pyrazole-3-carboxamide] | 21.2 µM | 968 µM | 1.76 µM |
| Cc1c(C(=O)Nc2ccc(F)c([C@@]3(C(F)F)N=C(N)O[C@@H]4C[C@@H]43)c2)nc2ccc(Cl)cn12 [Example 69] | 0.126 µM | 440 µM | 0.0372 µM |
| NC1=N[C@@](c2cc(NC(=O)c3ccc(OCc4nccs4)cn3)ccc2F)(C(F)F)[C@H]2C[C@H]2O1 [Example 172, N-(3-((1R,5S,6R)-3-amino-5-(difluoromethyl)-2-oxa-4-azabicyclo[4.1.0]hept-3-en-5-yl)-4-fluorophenyl)-5-(thiazol-2-ylmethoxy) picolinamide] | 0.0824 µM | 360 µM | 0.446 µM |
| NC1=N[C@](c2cc(NC(=O)c3ccc(Cl)cn3)ccc2F)(C(F)F)[C@@H]2C[C@@H]2O1 [Example 60, N-(3-((1S,5R,6S)-3-amino-5-(difluoromethyl)-2-oxa-4-azabicyclo[4.1.0]hept-3-en-5-yl)-4-fluorophenyl)-5-chloropicolinamide] | > 40 µM | > 400 µM | > 15.6 µM |
| NC1=N[C@](CF)(c2cc(Nc3nccc4cc(Cl)cnc34)cc(F)c2F)[C@H]2C[C@H]2O1 [Example 342, (1R,5S,6R)-5-(5-((3-chloro-1,7-naphthyridin-8-yl)amino)-2,3-difluorophenyl)-5-(fluoromethyl)-2-oxa-4-azabicyclo[4.1.0]hept-3-en-3-amine] | 0.0598 µM | 50.6 µM | 0.12 µM |
| COc1cnc(C(=O)Nc2cc(F)c(F)c([C@@]3(CF)N=C(N)O[C@@H]4C[C@@H]43)c2)cn1 [Example 143, N-(3-((1R,5S,6R)-3-amino-5-(fluoromethyl)-2-oxa-4-azabicyclo[4.1.0]hept-3-en-5-yl)-4,5-difluorophenyl)-5-methoxypyrazine-2-carboxamide] | 0.125 µM | 529 µM | 0.0221 µM |
| NC1=N[C@@](c2cc(NC(=O)COc3ccccc3)ccc2F)(C(F)F)[C@H]2C[C@H]2O1 [Example 256, N-(3-((1R,5S,6R)-3-amino-5-(difluoromethyl)-2-oxa-4-azabicyclo[4.1.0]hept-3-en-5-yl)-4-fluorophenyl)-2-phenoxyacetamide] | 6.66 µM | 331 µM | 2.18 µM |
| COc1cnc(C(=O)Nc2ccc(F)c([C@@]3(C(F)F)N=C(N)O[C@@H]4C[C@@H]43)c2)nc1 [Example 103, N-(3-((1R,5S,6R)-3-amino-5-(difluoromethyl)-2-oxa-4-azabicyclo[4.1.0]hept-3-en-5-yl)-4-fluorophenyl)-5-methoxypyrimidine-2-carboxamide] | 0.121 µM | 763 µM | 0.0574 µM |
| NC1=N[C@](CF)(c2cc(NC(=O)c3ccc(Cl)cn3)ccc2Cl)[C@H]2C[C@H]2O1 [Example 270, N-(3-((1R,5S,6R)-3-amino-5-(fluoromethyl)-2-oxa-4-azabicyclo[4.1.0]hept-3-en-5-yl)-4-chlorophenyl)-5-chloropicolinamide] | 0.0669 µM | 646 µM | 0.0122 µM |
| Cc1cc(OC(F)F)cnc1C(=O)Nc1ccc(Cl)c([C@]2(C(F)F)N=C(N)O[C@H]3C[C@H]32)c1 [Example 213, N-(3-((1S,5R,6S)-3-amino-5-(difluoromethyl)-2-oxa-4-azabicyclo[4.1.0]hept-3-en-5-yl)-4-chlorophenyl)-5-(difluoromethoxy)-3-methylpicolinamide] | 2.42 µM | 1130 µM | 1.31 µM |
| NC1=N[C@@](c2cc(NC(=O)c3cnc(OCC(F)(F)F)cn3)ccc2F)(C(F)F)[C@H]2C[C@H]2O1 [Example 160, N-(3-((1R,5S,6R)-3-amino-5-(difluoromethyl)-2-oxa-4-azabicyclo[4.1.0]hept-3-en-5-yl)-4-fluorophenyl)-5-(2,2,2-trifluoroethoxy)pyrazine-2-carboxamide] | 0.0291 µM | 2000 µM | 0.0808 µM |
| Cc1cc(OC(F)F)cnc1C(=O)Nc1ccc(Cl)c([C@@]2(C(F)F)N=C(N)O[C@@H]3C[C@@H]32)c1 [Example 212, N-(3-((1R,5S,6R)-3-amino-5-(difluoromethyl)-2-oxa-4-azabicyclo[4.1.0]hept-3-en-5-yl)-4-chlorophenyl)-5-(difluoromethoxy)-3-methylpicolinamide] | 0.0469 µM | 928 µM | 0.0385 µM |
| COCC(=O)Nc1ccc(F)c([C@@]2(C(F)F)N=C(N)O[C@@H]3C[C@@H]32)c1 [Example 240, N-(3-((1R,5S,6R)-3-amino-5-(difluoromethyl)-2-oxa-4-azabicyclo[4.1.0]hept-3-en-5-yl)-4-fluorophenyl)-2-methoxyacetamide] | 0.821 µM | 48.1 µM | 0.712 µM |
| COc1cc(Cl)cnc1C(=O)Nc1ccc(F)c([C@@]2(C(F)F)N=C(N)O[C@@H]3C[C@@H]32)c1 [Example 28, N-(3-((1R,5S,6R)-3-amino-5-(difluoromethyl)-2-oxa-4-azabicyclo[4.1.0]hept-3-en-5-yl)-4-fluorophenyl)-5-chloro-3-methoxypicolinamide] | 0.118 µM | 908 µM | 0.0765 µM |

Other lines, results leading:

| IC50 [1] | IC50 (Cathepsin D (Cat D)) | IC50 (BACE) | Structure (SMILES) |
| --- | --- | --- | --- |
| 36.3 µM | 1970 µM | 2.66 µM | COc1cnc(C(=O)Nc2ccc(Cl)c([C@]3(CF)N=C(N)O[C@H]4C[C@H]43)c2)cn1 [Example 273] |
| 1.15 µM | 148 µM | 1.87 µM | NC1=N[C@@](c2cc(NC(=O)c3ccc(-c4ccccc4)cn3)ccc2F)(C(F)F)[C@H]2C[C@H]2O1 [Example 291, N-(3-((1R,5S,6R)-3-amino-5-(difluoromethyl)-2-oxa-4-azabicyclo[4.1.0]hept-3-en-5-yl)-4-fluorophenyl)-5-phenylpicolinamide] |
| 0.0954 µM | 116 µM | 0.0779 µM | NC1=NC(c2cc(NCc3nn(C(F)F)cc3Cl)ccc2F)(C(F)F)[C@H]2C[C@H]2O1 (stereo in doubt) [Example 374, (1R,5R,6R)-5-(5-(((4-chloro-1-(difluoromethyl)-1H-pyrazol-3-yl)methyl)amino)-2-fluorophenyl)-5-(difluoromethyl)-2-oxa-4-azabicyclo[4.1.0]hept-3-en-3-amine] |
| 4.19 µM | 1860 µM | 3.51 µM | NC1=N[C@](c2cc(NC(=O)c3ccc(Br)cn3)ccc2F)(C(F)F)[C@@H]2C[C@@H]2O1 [Example 296, N-(3-((1S,5R,6S)-3-amino-5-(difluoromethyl)-2-oxa-4-azabicyclo[4.1.0]hept-3-en-5-yl)-4-fluorophenyl)-5-bromopicolinamide] |
| 0.101 µM | 139 µM | 0.0326 µM | N#Cc1ccc(C(=O)Nc2ccc(F)c([C@@]3(C(F)F)N=C(N)O[C@@H]4C[C@@H]43)n2)nc1 (racemic) [Example 330] |
| 0.0539 µM | 205 µM | 0.0176 µM | N#Cc1cnc2c(Nc3ccc(F)c([C@@]4(CF)N=C(N)O[C@@H]5C[C@@H]54)c3)nccc2c1 [Example 346, 8-((3-((1R,5S,6R)-3-amino-5-(fluoromethyl)-2-oxa-4-azabicyclo[4.1.0]hept-3-en-5-yl)-4-fluorophenyl)amino)-1,7-naphthyridine-3-carbonitrile] |
| > 40 µM | 1770 µM | > 15.6 µM | Cc1cc(C#N)cnc1C(=O)Nc1cc(F)c(C)c([C@@]2(C(F)F)N=C(N)O[C@@H]3C[C@@H]32)c1 [Example 310, N-(3-((1R,5S,6R)-3-amino-5-(difluoromethyl)-2-oxa-4-azabicyclo[4.1.0]hept-3-en-5-yl)-5-fluoro-4-methylphenyl)-5-cyano-3-methylpicolinamide] |
| 0.0319 µM | > 14.8 µM | 0.0628 µM | N#Cc1cnc2c(Nc3ccc(Cl)c([C@@]4(C(F)F)N=C(N)O[C@@H]5C[C@@H]54)c3)ncc(F)c2c1 [Example 350, 8-((3-((1R,5S,6R)-3-amino-5-(difluoromethyl)-2-oxa-4-azabicyclo[4.1.0]hept-3-en-5-yl)-4-chlorophenyl)amino)-5-fluoro-1,7-naphthyridine-3-carbonitrile] |
| 1.03 µM | 832 µM | 0.254 µM | CS(=O)(=O)c1c(F)cc(NC(=O)c2ccc(Cl)cn2)cc1[C@@]1(CF)N=C(N)O[C@@H]2C[C@@H]21 (racemic) [Example 424, N-(3-(((1RS),(5S,R),(6R,S))-3-amino-5-(fluoromethyl)-2-oxa-4-azabicyclo[4.1.0]hept-3-en-5-yl)-5-fluoro-4-(methylsulfonyl)phenyl)-5-chloropicolinamide] |
| 9.42 µM | 85.5 µM | 4.94 µM | NC1=N[C@@](c2cc(NC[C@H]3C[C@H]3c3ccccc3)ccc2F)(C(F)F)[C@H]2C[C@H]2O1 [Example 372, (1R,5S,6R)-5-(difluoromethyl)-5-(2-fluoro-5-((((1(S,R),2(R,S))-2-phenylcyclopropyl)methyl)amino)phenyl)-2-oxa-4-azabicyclo[4.1.0]hept-3-en-3-amine] |
| 0.0322 µM | 538 µM | 0.012 µM | NC1=N[C@](CF)(c2cc(NC(=O)c3ccc(Br)cn3)ccc2Cl)[C@H]2C[C@H]2O1 [Example 274, N-(3-((1R,5S,6R)-3-amino-5-(fluoromethyl)-2-oxa-4-azabicyclo[4.1.0]hept-3-en-5-yl)-4-chlorophenyl)-5-bromopicolinamide] |
| 430 µM | 596 µM | 0.0982 µM | COc1cnc2c(Nc3ccc(F)c([C@@]4(CF)N=C(N)O[C@@H]5C[C@@H]54)c3)ncc(F)c2c1 [Example 344, (1R,5S,6R)-5-(2-fluoro-5-((5-fluoro-3-methoxy-1,7-naphthyridin-8-yl)amino)phenyl)-5-(fluoromethyl)-2-oxa-4-azabicyclo[4.1.0]hept-3-en-3-amine] |
